This note sets out measurements from US20260022142A1, “MACROCYCLIC IMMUNOMODULATORS” (Bristol-Myers Squibb Company, priority 2022, published 2026).

Numbered stars: 1 amine (or outer) side, 2 acyl side, 3 side chain; on linkers, the order of the positions; unused ones are H or OH. Bridge positions count the residues as written; N and C are the ends. Square brackets hold non-standard residues; d marks the D form. Peptide text beside a SMILES is read from it. * marks the point of attachment. ξ: configuration not given here. Bip = N[C@@H](Cc1ccc(-c2ccccc2)cc1)C(=O)O; Phe(3-Me) = Cc1cccc(C[C@H](N)C(=O)O)c1; γGlu = O=C(O)[C@H](CCC(=O)[*:2])N[*:1]; Cha = N[C@@H](CC1CCCCC1)C(=O)O; Thr(3ξ) = CC(O)[C@H](N)C(=O)O; Carboxymethyl = O=C(O)C*; Orn = NCCC[C@H](N)C(=O)O; Aun = NCCCCCCCCCCC(=O)O; Dab = NCC[C@H](N)C(=O)O; Dap = NC[C@H](N)C(=O)O; AEEA = NCCOCCOCC(=O)O

T1 sequence (Q15116 25-288): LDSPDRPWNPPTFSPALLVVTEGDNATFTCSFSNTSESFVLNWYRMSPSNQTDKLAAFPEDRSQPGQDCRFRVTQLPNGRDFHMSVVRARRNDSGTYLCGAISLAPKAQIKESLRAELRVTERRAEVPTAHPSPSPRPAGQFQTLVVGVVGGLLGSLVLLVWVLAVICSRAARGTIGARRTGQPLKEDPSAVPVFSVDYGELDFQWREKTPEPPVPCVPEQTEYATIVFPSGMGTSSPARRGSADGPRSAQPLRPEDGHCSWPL

The test has as its target T1, PD-1/PD-L1 interaction (PE-labeled human PD-L1-Ig binding to Jurkat cell line over-expressing human PD-1) (Homo sapiens, UniProt Q15116).
T1 construct: expressed in transfected cells; host or cells: Jurkat
As to the kind of experiment: Jurkat-PD-1 Cell Binding High-Content Screening Assay (CBA). In kind it is cell-based. To be noted: Jurkat cell line over-expressing human PD-1; PE-labeled PD-L1-Ig 20 nM final; read-out: Jurkat hPD1-PDL1 IC50. The essentials: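 Human PD-L1-Ig carrying a covalent PE label on its Ig tag serves as the probe, applied at 20 nM final to compound-treated (2 h, 37° C) Jurkat-hPD-1 cells in medium with 10% fetal calf serum. After one hour, fixation and nuclear staining precede high-content image analysis.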
The IC50 is the midpoint of a concentration-inhibition curve. Consider `Cc1cccc(C[C@@H]2NC(=O)[C@H](CC(=O)O)NC(=O)[C@H](Cc3ccc(OCC(=O)O)cc3)NC(=O)[C@H](CCN)NC(=O)CSC[C@@H](C(=O)N[C@@H](CCN)C(=O)NCCCCCCCCCCC(=O)O)NC(=O)[C@H](CO)NC(=O)[C@H](C(C)O)NC(=O)[C@H](CC3CCCCC3)NC(=O)[C@H](Cc3cnc[nH]3)NC(=O)[C@@H](CC(C)C)NC(=O)[C@H](CCCN)NC(=O)[C@H](Cc3ccc(OCC(=O)O)cc3)NC(=O)[C@H](Cc3ccc(-c4ccccc4)cc3)NC(=O)[C@H](Cc3ccc(OCC(=O)O)cc3)NC2=O)c1` (stereo partly drawn) [Compound 3672] ({CH2CO}-[Dab]Y(Carboxymethyl)D[Phe(3-Me)]Y(Carboxymethyl)[Bip]Y(Carboxymethyl)[Orn][dL]H[Cha][Thr(3ξ)]SC[Dab][Aun]-OH; thioether N-14), for which the IC50 turned out to be 20.7 nM.

In the case of `CC(C)C[C@H]1NC(=O)[C@H](CCCN)NC(=O)[C@H](C(C)C)NC(=O)[C@H](Cc2ccc(-c3ccccc3)cc2)NC(=O)[C@H](C(C)C)NC(=O)[C@H](Cc2c[nH]c3ccccc23)NC(=O)[C@H](CC(=O)O)NC(=O)[C@H](Cc2ccc(OCC(=O)O)cc2)NC(=O)[C@H](C(C)O)NC(=O)CSC[C@@H](C(=O)N[C@@H](CCN)C(=O)NCCCCCCCCCCC(=O)O)NC(=O)[C@H](CCCCN)NC(=O)[C@H](C(C)O)NC(=O)[C@H](CC2CCCCC2)NC(=O)[C@H](CCN)NC1=O` (stereo partly drawn) [Compound 3673] ({CH2CO}-[Thr(3ξ)]Y(Carboxymethyl)DWV[Bip]V[Orn][dL][Dab][Cha][Thr(3ξ)]KC[Dab][Aun]-OH; thioether N-14), the IC50 turned out to be 29.2 nM.

As to `CC(C)C[C@H]1NC(=O)[C@H](CCCN)NC(=O)[C@H](C(C)C)NC(=O)[C@H](Cc2ccc(-c3ccccc3)cc2)NC(=O)[C@H](C(C)C)NC(=O)[C@H](Cc2c[nH]c3ccccc23)NC(=O)[C@H](CC(=O)O)NC(=O)[C@H](Cc2ccc(OCC(=O)O)cc2)NC(=O)[C@H](C(C)O)NC(=O)CSC[C@@H](C(=O)N[C@@H](CCN)C(=O)NCCCCCCCCCCC(=O)O)NC(=O)[C@H](CCN)NC(=O)[C@H](C(C)O)NC(=O)[C@H](CC2CCCCC2)NC(=O)[C@H](CCN)NC1=O` (stereo partly drawn) [Compound 3674] ({CH2CO}-[Thr(3ξ)]Y(Carboxymethyl)DWV[Bip]V[Orn][dL][Dab][Cha][Thr(3ξ)][Dab]C[Dab][Aun]-OH; thioether N-14), the IC50 stood at 13.4 nM.

For the molecule `CC(C)C[C@H]1NC(=O)[C@H](CCCN)NC(=O)[C@H](C(C)C)NC(=O)[C@H](Cc2ccc(-c3ccccc3)cc2)NC(=O)[C@H](C(C)C)NC(=O)[C@H](Cc2c[nH]c3ccccc23)NC(=O)[C@H](CC(=O)O)NC(=O)[C@H](Cc2ccc(OCC(=O)O)cc2)NC(=O)[C@H](C(C)O)NC(=O)CSC[C@@H](C(=O)N[C@@H](CCN)C(=O)NCCCCCCCCCCC(=O)O)NC(=O)[C@H](CCCN)NC(=O)[C@H](C(C)O)NC(=O)[C@H](CC2CCCCC2)NC(=O)[C@H](CCN)NC1=O` (stereo partly drawn) [Compound 3675] ({CH2CO}-[Thr(3ξ)]Y(Carboxymethyl)DWV[Bip]V[Orn][dL][Dab][Cha][Thr(3ξ)][Orn]C[Dab][Aun]-OH; thioether N-14), the IC50 was 19.3 nM.

Take `CC(C)C[C@H]1NC(=O)[C@H](CCCN)NC(=O)[C@H](C(C)C)NC(=O)[C@H](Cc2ccc(-c3ccccc3)cc2)NC(=O)[C@H](C(C)C)NC(=O)[C@H](Cc2c[nH]c3ccccc23)NC(=O)[C@H](CC(=O)O)NC(=O)[C@H](Cc2ccc(OCC(=O)O)cc2)NC(=O)[C@H](CN)NC(=O)CSC[C@@H](C(=O)N[C@@H](CCN)C(=O)NCCCCCCCCCCC(=O)O)NC(=O)[C@H](CCN)NC(=O)[C@H](C(C)O)NC(=O)[C@H](CC2CCCCC2)NC(=O)[C@H](CCN)NC1=O` (stereo partly drawn) [Compound 3676] ({CH2CO}-[Dap]Y(Carboxymethyl)DWV[Bip]V[Orn][dL][Dab][Cha][Thr(3ξ)][Dab]C[Dab][Aun]-OH; thioether N-14): the IC50 was 9.2 nM.

Turning to `CC(C)C[C@H]1NC(=O)[C@H](CCCN)NC(=O)[C@H](C(C)C)NC(=O)[C@H](Cc2ccc(-c3ccccc3)cc2)NC(=O)[C@H](C(C)C)NC(=O)[C@H](Cc2c[nH]c3ccccc23)NC(=O)[C@H](CC(=O)O)NC(=O)[C@H](Cc2ccc(OCC(=O)O)cc2)NC(=O)[C@H](CN)NC(=O)CSC[C@@H](C(=O)N[C@@H](CCN)C(=O)NCCCCCCCCCCC(=O)O)NC(=O)[C@H](CCCN)NC(=O)[C@H](C(C)O)NC(=O)[C@H](CC2CCCCC2)NC(=O)[C@H](CCN)NC1=O` (stereo partly drawn) [Compound 3677] ({CH2CO}-[Dap]Y(Carboxymethyl)DWV[Bip]V[Orn][dL][Dab][Cha][Thr(3ξ)][Orn]C[Dab][Aun]-OH; thioether N-14), the IC50 turned out to be 11.3 nM.

With `CC(C)C[C@H]1NC(=O)[C@H](CCCN)NC(=O)[C@H](C(C)C)NC(=O)[C@H](Cc2ccc(-c3ccccc3)cc2)NC(=O)[C@H](C(C)C)NC(=O)[C@H](Cc2c[nH]c3ccccc23)NC(=O)[C@H](CC(=O)O)NC(=O)[C@H](Cc2ccc(OCC(=O)O)cc2)NC(=O)[C@H](C(C)O)NC(=O)CSC[C@@H](C(=O)N[C@@H](CCN)C(=O)NCCOCCOCC(=O)N[C@@H](CCC(=O)NCCCCCCCCCCC(=O)O)C(=O)O)NC(=O)[C@H](CCN)NC(=O)[C@H](C(C)O)NC(=O)[C@H](CC2CCCCC2)NC(=O)[C@H](CCN)NC1=O` (stereo partly drawn) [Compound 3678] ({CH2CO}-[Thr(3ξ)]Y(Carboxymethyl)DWV[Bip]V[Orn][dL][Dab][Cha][Thr(3ξ)][Dab]C[Dab][AEEA][γGlu][Aun]-OH; thioether N-14), the IC50 amounted to 9.2 nM.

Regarding `CC(C)C[C@H]1NC(=O)[C@H](CCCN)NC(=O)[C@H](C(C)C)NC(=O)[C@H](Cc2ccc(-c3ccccc3)cc2)NC(=O)[C@H](C(C)C)NC(=O)[C@H](Cc2c[nH]c3ccccc23)NC(=O)[C@H](CC(=O)O)NC(=O)[C@H](Cc2ccc(OCC(=O)O)cc2)NC(=O)[C@H](CN)NC(=O)CSC[C@@H](C(=O)N[C@@H](CCN)C(=O)NCCOCCOCC(=O)N[C@@H](CCC(=O)NCCCCCCCCCCC(=O)O)C(=O)O)NC(=O)[C@H](CCN)NC(=O)[C@H](C(C)O)NC(=O)[C@H](CC2CCCCC2)NC(=O)[C@H](CCN)NC1=O` (stereo partly drawn) [Compound 3679] ({CH2CO}-[Dap]Y(Carboxymethyl)DWV[Bip]V[Orn][dL][Dab][Cha][Thr(3ξ)][Dab]C[Dab][AEEA][γGlu][Aun]-OH; thioether N-14), the IC50 turned out to be 9.6 nM.

For `CC(C)C[C@H]1NC(=O)[C@H](CCCN)NC(=O)[C@H](C(C)C)NC(=O)[C@H](Cc2ccc(-c3ccccc3)cc2)NC(=O)[C@H](C(C)C)NC(=O)[C@H](Cc2c[nH]c3ccccc23)NC(=O)[C@H](CC(=O)O)NC(=O)[C@H](Cc2ccc(OCC(=O)O)cc2)NC(=O)[C@H](CN)NC(=O)CSC[C@@H](C(=O)N[C@@H](CCN)C(=O)NCCOCCOCC(=O)N[C@@H](CCC(=O)NCCCCCCCCCCC(=O)O)C(=O)O)NC(=O)[C@H](CCCN)NC(=O)[C@H](C(C)O)NC(=O)[C@H](CC2CCCCC2)NC(=O)[C@H](CCN)NC1=O` (stereo partly drawn) [Compound 3680] ({CH2CO}-[Dap]Y(Carboxymethyl)DWV[Bip]V[Orn][dL][Dab][Cha][Thr(3ξ)][Orn]C[Dab][AEEA][γGlu][Aun]-OH; thioether N-14), the IC50 came to 15.8 nM.

For the molecule `CC(C)C[C@@H]1NC(=O)[C@H](Cc2c[nH]c3ccccc23)NC(=O)[C@H](CC(=O)O)NC(=O)[C@H](Cc2ccc(OCC(=O)O)cc2)NC(=O)[C@H](CN)NC(=O)CSC[C@@H](C(=O)N[C@@H](CCN)C(=O)NCCCCCCCCCCC(=O)O)NC(=O)[C@H](CCN)NC(=O)[C@H](C(C)O)NC(=O)[C@H](CC2CCCCC2)NC(=O)[C@H](CCN)NC(=O)[C@@H](CC(C)C)NC(=O)[C@H](CCCN)NC(=O)[C@H](Cc2ccc(O)cc2)NC(=O)[C@H](Cc2ccc(-c3ccccc3)cc2)NC1=O` (stereo partly drawn) [Compound 3681] ({CH2CO}-[Dap]Y(Carboxymethyl)DWL[Bip]Y[Orn][dL][Dab][Cha][Thr(3ξ)][Dab]C[Dab][Aun]-OH; thioether N-14), the IC50 turned out to be 71.7 nM.

For the molecule `CC(C)C[C@@H]1NC(=O)[C@H](Cc2c[nH]c3ccccc23)NC(=O)[C@H](CC(=O)O)NC(=O)[C@H](Cc2ccc(OCC(=O)O)cc2)NC(=O)[C@H](CN)NC(=O)CSC[C@@H](C(=O)N[C@@H](CCN)C(=O)NCCCCCCCCCCC(=O)O)NC(=O)[C@H](CCCN)NC(=O)[C@H](C(C)O)NC(=O)[C@H](CC2CCCCC2)NC(=O)[C@H](CCN)NC(=O)[C@@H](CC(C)C)NC(=O)[C@H](CCCN)NC(=O)[C@H](Cc2ccc(O)cc2)NC(=O)[C@H](Cc2ccc(-c3ccccc3)cc2)NC1=O` (stereo partly drawn) [Compound 3682] ({CH2CO}-[Dap]Y(Carboxymethyl)DWL[Bip]Y[Orn][dL][Dab][Cha][Thr(3ξ)][Orn]C[Dab][Aun]-OH; thioether N-14), the IC50 was 51.4 nM.

`CC(C)C[C@@H]1NC(=O)[C@H](Cc2c[nH]c3ccccc23)NC(=O)[C@H](CC(=O)O)NC(=O)[C@H](Cc2ccc(OCC(=O)O)cc2)NC(=O)[C@H](C(C)O)NC(=O)CSC[C@@H](C(=O)N[C@@H](CCN)C(=O)NCCCCCCCCCCC(=O)O)NC(=O)[C@H](CCN)NC(=O)[C@H](C(C)O)NC(=O)[C@H](CC2CCCCC2)NC(=O)[C@H](CCN)NC(=O)[C@@H](CC(C)C)NC(=O)[C@H](CCCN)NC(=O)[C@H](Cc2ccc(O)cc2)NC(=O)[C@H](Cc2ccc(-c3ccccc3)cc2)NC1=O` (stereo partly drawn) [Compound 3683] ({CH2CO}-[Thr(3ξ)]Y(Carboxymethyl)DWL[Bip]Y[Orn][dL][Dab][Cha][Thr(3ξ)][Dab]C[Dab][Aun]-OH; thioether N-14): the IC50 was determined as 118 nM.

With `CC(C)C[C@@H]1NC(=O)[C@H](Cc2c[nH]c3ccccc23)NC(=O)[C@H](CC(=O)O)NC(=O)[C@H](Cc2ccc(OCC(=O)O)cc2)NC(=O)[C@H](C(C)O)NC(=O)CSC[C@@H](C(=O)N[C@@H](CCN)C(=O)NCCCCCCCCCCC(=O)O)NC(=O)[C@H](CCCN)NC(=O)[C@H](C(C)O)NC(=O)[C@H](CC2CCCCC2)NC(=O)[C@H](CCN)NC(=O)[C@@H](CC(C)C)NC(=O)[C@H](CCCN)NC(=O)[C@H](Cc2ccc(O)cc2)NC(=O)[C@H](Cc2ccc(-c3ccccc3)cc2)NC1=O` (stereo partly drawn) [Compound 3684] ({CH2CO}-[Thr(3ξ)]Y(Carboxymethyl)DWL[Bip]Y[Orn][dL][Dab][Cha][Thr(3ξ)][Orn]C[Dab][Aun]-OH; thioether N-14), the IC50 came to 77.1 nM.
